Measured values from PMC7841309, “Involvement of the Mitochondrial Protein Tyrosine Phosphatase PTPM1 in the Promotion of Conidiation, Development, and Pathogenicity in Colletotrichum graminicola” (Frontiers in Microbiology, 2021).

Target: T1, CgPTPM1 (Colletotrichum graminicola, UniProt E3QMN0)
T1 construct: gene GLRG_07262; full-length ORF (1869 bp cDNA, 622 residues) in pET28a, His-tag, E. coli BL21, Ni-NTA, about 74 kDa
Test: colorimetric phosphatase assay, […] nm
Assay type: biochemical
Settings: 0.1 M Tris, 0.25 M NaCl, 5 mM EDTA, 10 mM DTT, pH 8.2, 37 C, 30 min

T1 sequence (E3QMN0 entry or part of it): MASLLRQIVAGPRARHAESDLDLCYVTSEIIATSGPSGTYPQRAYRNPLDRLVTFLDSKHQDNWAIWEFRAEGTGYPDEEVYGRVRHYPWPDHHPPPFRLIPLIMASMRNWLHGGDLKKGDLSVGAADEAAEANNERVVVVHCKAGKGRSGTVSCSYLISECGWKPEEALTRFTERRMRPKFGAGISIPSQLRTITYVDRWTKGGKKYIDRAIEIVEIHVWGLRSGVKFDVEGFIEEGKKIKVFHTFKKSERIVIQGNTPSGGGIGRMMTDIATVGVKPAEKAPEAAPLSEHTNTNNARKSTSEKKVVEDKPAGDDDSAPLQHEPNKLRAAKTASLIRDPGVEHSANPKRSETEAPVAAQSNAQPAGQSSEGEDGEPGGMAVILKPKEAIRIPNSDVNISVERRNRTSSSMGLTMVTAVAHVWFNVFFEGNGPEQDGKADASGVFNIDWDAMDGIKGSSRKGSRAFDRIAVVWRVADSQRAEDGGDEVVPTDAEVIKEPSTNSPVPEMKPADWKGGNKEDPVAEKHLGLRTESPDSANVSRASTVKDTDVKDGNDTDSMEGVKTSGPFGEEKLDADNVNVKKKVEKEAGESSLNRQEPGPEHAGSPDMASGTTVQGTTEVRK

Compound: O=[N+]([O-])c1ccc(OP(=O)(O)O)cc1 [pNPP, p-nitrophenyl phosphate]
- colorimetric phosphatase assay, 405 nm: Using pNPP as a substrate, the protein phosphatase activity was detected using the colorimetric method
